Experiment [1] concerns the target T1, human dopamine D2L receptor (Homo sapiens, UniProt P14416). Briefly: GTPγS functional assay, dopamine D2L (CHO-K1 membrane extracts). Type of experiment: biochemical. The arrangement: host or cells: CHO-K1 co-expressing mitochondrial apoaequorin and Gα16. The settings on record: for inhibition at 0.005 µM: antagonist concentration 5 nM; for inhibition at 0.05 µM: antagonist concentration 50 nM; for inhibition at 0.5 µM: antagonist concentration 500 nM; for inhibition at 5 µM: antagonist concentration 5000 nM; for inhibition at 15 µM: antagonist concentration 15000 nM. The text has this:
(§1) To study the functional activity of compounds of the invention on the human recombinant dopamine D2L with Aequorin, GTPγS and cAMP functional assays and on the human recombinant serotonin 5-HT2A receptor with Aequorin, CHO-K1 cell lines expressing D2L or 5-HT2A recombinant receptor, mitochondrial apoaequorin and Gα16 were used for the Aequorin assay. CHO-K1 cell line expressing the recombinant D2L receptor was used for the cAMP assay and was amplified to prepare membranes used for the GTPγS assay.
GTPγS Assay Procedure: Assay buffer [20 mM HEPES pH 7.4; 100 mM NaCl, 10 μg/mL saponin, 30 mM MgCl2]; Membranes [Recombinant CHO-K1-D2L membrane extracts thawed on ice and diluted in assay buffer to give 1 mg/mL (10 μg/10 μL) and kept on ice]; GDP [diluted in assay buffer to give […] final concentration]; Beads [PVT-WGA (Amersham, RPNQ0001), diluted in assay buffer at 25 mg/mL (0.25 mg/10 μL)]; GTPγ35S [(PerkinElmer NEG030X), diluted in assay buffer to give 0.1 nM final concentration]; Ligand [Quinpirol (Tocris, 1061) as reference agonist and haloperidol (Tocris, 0931) as reference antagonist, diluted in assay buffer]. Membranes were mixed with GDP (volume:volume) and incubated for at least 15 min on ice. In parallel, GTPγ[^35S] was mixed with the beads (volume:volume) just before starting the reaction. For agonist testing, the following reagents are successively added in the wells of an Optiplate (Perkin Elmer): 50 μL of test or reference ligand, 20 μL of the membranes:GDP mix, 10 μL of assay buffer and 20 μL of the GTPγ[^35S]:beads mix. For antagonist testing, the following reagents were successively added in the wells of an Optiplate (Perkin Elmer): 50 μL of test or reference ligand, 20 μL of the membranes:GDP mix, and then after an incubation of 15 min at room temperature, 10 μL of reference agonist at historical EC80 concentration and 20 μL of the GTPγ[^35S]:beads mix. The plates were covered with a top seal, mixed on an orbital shaker for 2 min, and then incubated for 1 h at room temperature. Then the plates were centrifuged for 10 min at 2000 rpm, incubated at room temperature 1 h and counted for 1 min/well with a Perkin Elmer TopCount reader. Compounds were tested for antagonist activity at the human dopamine D2L receptor (FAST-0101G) at the following nanomolar concentrations, in duplicate: Antagonist (nM): 5, 15, 50, 150, 500, 1500, 5000, 15000.

Experiment [2] has as its target T1, human dopamine D2L receptor. Briefly: Aequorin functional assay, dopamine D2L (CHO-K1). Format: cell-based. Also noted: host or cells: CHO-K1 co-expressing mitochondrial apoaequorin and Gα16. The settings on record: for inhibition at 0.005 µM / inhibition at […] / inhibition at 0.05 µM / inhibition at 0.5 µM / inhibition at 5 µM / inhibition at 15 µM: CHO-K1; for inhibition at 0.005 µM: Antagonist concentration 5 nM; for inhibition at 0.05 µM: Antagonist concentration 50 nM; for inhibition at 0.5 µM: Antagonist concentration 500 nM; for inhibition at 5 µM: Antagonist concentration 5000 nM; for inhibition at 15 µM: Antagonist concentration 15000 nM.
Description: as §1
Cells were incubated at room temperature for at least 4 h with Coelenterazine h (Molecular Probes). Dose response curves with reference compounds were performed before testing the compounds of the invention. D2L reference agonist and antagonist were quinpirol (Tocris, 1061) and haloperidol (Tocris, 0931), respectively. […] For agonist testing, 50 μL of cell suspension were injected on 50 μL of test compound or reference agonist plated in a 96-well plate. The resulting emission of light was recorded using the Hamamatsu Functional Drug Screening System 6000 (FDSS 6000). Following an incubation of 15 min after the first injection, 100 μL of reference agonist at a concentration corresponding to its EC80 was injected on the 100 μL of the mixture of cell suspension and test compound, for antagonist testing. The resulting emission of light was recorded using the same luminometer as for agonist testing. To standardize the emission of recorded light (determination of the “100% signal”) across plates and across different experiments, some of the wells contained 100 μM digitonin or a saturating concentration of ATP (20 μM). Plates also contained the reference agonist at a concentration equivalent to the EC100 and EC80 obtained during the test validation.

The mark [3] stands for this setting: antagonist concentration 150 nM.
Where [4] appears, read: antagonist concentration 1500 nM.
[5] abbreviates: Antagonist concentration 150 nM.
[6] abbreviates: Antagonist concentration 1500 nM.

SMILES strings stand for the structures.

For orientation: inhibition means the change of the read-out against control, counted positive when it falls.

T1 sequence (P14416 whole entry): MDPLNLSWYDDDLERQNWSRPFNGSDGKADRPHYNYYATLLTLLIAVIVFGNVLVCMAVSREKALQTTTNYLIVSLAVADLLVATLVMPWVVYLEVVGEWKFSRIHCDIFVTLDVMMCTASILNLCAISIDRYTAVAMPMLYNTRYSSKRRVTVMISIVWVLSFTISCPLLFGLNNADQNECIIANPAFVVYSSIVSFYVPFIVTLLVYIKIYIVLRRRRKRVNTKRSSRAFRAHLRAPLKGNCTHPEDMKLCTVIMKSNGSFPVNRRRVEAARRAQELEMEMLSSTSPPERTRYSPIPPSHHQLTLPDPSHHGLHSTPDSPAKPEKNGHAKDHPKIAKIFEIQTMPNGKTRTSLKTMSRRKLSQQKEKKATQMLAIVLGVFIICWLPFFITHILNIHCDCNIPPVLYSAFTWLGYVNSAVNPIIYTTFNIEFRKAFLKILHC

Consider `C/C(=C\n1c2c(c3cc(Cl)ccc31)CN(C)CC2)c1ccncc1` [Compound 90, (E)-8-chloro-2,3,4,5-tetrahydro-2-methyl-5-(2-(pyridin-4-yl)prop-1-enyl)-1H-pyrido[4,3-b]indole], for which the inhibition at 0.005 µM came to 59% in experiment [1] and 95.5% in experiment [2]. Further, the inhibition at […] was found to be 101% in experiment [1] (antagonist concentration 15 nM); 109% in experiment [1] (setting [3]); 116% in experiment [1] (setting [4]); 97.3% in experiment [2] (Antagonist concentration 15 nM); 96.8% in experiment [2] (setting [5]); 97.2% in experiment [2] (setting [6]). The inhibition at 0.05 µM in experiment [1] is 106%; in experiment [2], 93.5%. Also, the inhibition at 0.5 µM in experiment [1] is 109%; in experiment [2], 97.9%. Also, the figures for the inhibition at 5 µM in experiment [1] and in experiment [2] were 112% and 97.4%, respectively. Besides, the results for the inhibition at 15 µM in experiment [1] and in experiment [2] were 116% and 96.1%, respectively. In addition, the “D2L Agonist % Activation (Aequorin)” value in experiment [2] (Agonist concentration 10 nM) was 0.95%; in experiment [2] (Agonist concentration 30 nM), 0.25%; in experiment [2] (Agonist concentration 100 nM) it was −0.23%; in experiment [2] (Agonist concentration 300 nM), −0.24%; in experiment [2] (Agonist concentration 1000 nM), −0.48%; in experiment [2] (Agonist concentration 3000 nM), −1.20%. Also, the “D2L Agonist % Activation (Aequorin)” value in experiment [2] (Agonist concentration 10000 nM) is −0.78%; in experiment [2] (Agonist concentration 30000 nM) it was −0.92%.

Regarding `C/C(=C\n1c2c(c3cc(Cl)ccc31)CN(C)CC2)c1ccc(F)cc1` [Compound 83, (E)-8-chloro-5-(2-(4-fluorophenyl)prop-1-enyl)-2,3,4,5-tetrahydro-2-methyl-1H-pyrido[4,3-b]indole], the inhibition at 0.005 µM in experiment [1] was 51.8%; in experiment [2], 93.5%. For the same compound, the inhibition at […] in experiment [1] (antagonist concentration 15 nM) is 90%; in experiment [1] (setting [3]), 109%; in experiment [1] (setting [4]), 113%; in experiment [2] (Antagonist concentration 15 nM), 96.4%; in experiment [2] (setting [5]), 96.8%; in experiment [2] (setting [6]), 96%. In addition, the figures for the inhibition at 0.05 µM in experiment [1] and in experiment [2] were 104% and 96.8%, respectively. Besides, the inhibition at 0.5 µM in experiment [1] amounted to 118%; in experiment [2] it was 96.8%. In addition, the inhibition at 5 µM came out at 111% in experiment [1] and 96% in experiment [2]. In addition, the inhibition at 15 µM in experiment [1] was 105%; in experiment [2], 92.3%. Also, the “D2L Agonist % Activation (Aequorin)” value in experiment [2] (Agonist concentration 10 nM) was 2.43%; in experiment [2] (Agonist concentration 30 nM) it was 0.68%; in experiment [2] (Agonist concentration 100 nM), 1.26%; in experiment [2] (Agonist concentration 300 nM) it was 0.92%; in experiment [2] (Agonist concentration 1000 nM), −0.12%; in experiment [2] (Agonist concentration 3000 nM), 0.00%. Besides, the “D2L Agonist % Activation (Aequorin)” value in experiment [2] (Agonist concentration 10000 nM) was 6.32%; in experiment [2] (Agonist concentration 30000 nM), 84.25%.

Values taken from patent US8906925B2, “Pyrido[4,3-B]indoles containing rigid moieties” (Medivation Technologies, Inc., priority 2008, dated 2014).
